# Measured values published in US10947252B2, “Inhibitors of KEAP1-Nrf2 protein-protein interaction” (Janssen Pharmaceutica NV, priority 2018, dated 2021).
# What was measured:
# [1] = molecular target: Kelch domain of human KEAP1 (321-624 aa) (Homo sapiens (Human), UniProt Q14145); assay: KEAP1 KELCH ThermoFluor binding assay; conditions: KEAP Kelch […], 1,8-ANS, pH 7.0, average of results obtained, read-out: Tf Kd;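 also: Ligand-induced melting temperature shift of E. coli-expressed KEAP1 Kelch protein, Kd estimated from concentration-response curves of ΔTm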
# [2] = test system: Glo-Response ARE-luc2P HEK293 cell line; assay: ARE luciferase reporter cell-based assay; conditions: Homo sapiens, HEK293, 24 h, average of results obtained;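 also: luciferase signal tracks Nrf2 activation of the ARE once compounds disrupt KEAP1-Nrf2 binding, read with One-Glo reagent, DMSO serving as low control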
# Sequence of Kelch domain of human KEAP1 (321-624 aa) (Q14145 321-624): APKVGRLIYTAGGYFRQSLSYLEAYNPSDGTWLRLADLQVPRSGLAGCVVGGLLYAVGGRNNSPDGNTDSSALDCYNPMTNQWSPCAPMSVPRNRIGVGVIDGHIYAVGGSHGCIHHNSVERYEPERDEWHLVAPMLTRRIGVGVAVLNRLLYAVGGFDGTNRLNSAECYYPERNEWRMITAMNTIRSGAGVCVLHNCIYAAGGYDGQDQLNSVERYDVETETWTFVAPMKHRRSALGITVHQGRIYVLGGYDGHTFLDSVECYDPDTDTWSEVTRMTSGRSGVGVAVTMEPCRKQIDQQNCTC
Compound,Kd [1],EC50 [2]
"Cc1ccc([C@@H](CC(=O)O)c2ccn3c(C(F)(F)F)nnc3c2C)cc1CN1C[C@@H]2CCCN2c2ccccc2S1(=O)=O (single isomer, unassigned) [Example 275, (*R)-3-(3-(((S)-5,5-Dioxido-7a,8,9,10-tetrahydrobenzo[f]pyrrolo[2,1-d][1,2,5]thiadiazepin-6(7H)-yl)methyl)-4-methylphenyl)-3-(8-methyl-3-(trifluoromethyl)-[1,2,4]triazolo[4,3-a]pyridin-7-yl)propanoic Acid]",8.69 nM,399 nM
"Cc1ccc(C(CC(=O)O)c2ccn3c(C(F)F)nnc3c2C)cc1CN1CC2(CC2)Oc2ncc(C(N)=O)cc2S1(=O)=O (stereo not shown) [Example 551, 3-(3-((8′-Carbamoyl-1′,1′-dioxidospiro[cyclopropane-1,4′-pyrido[2,3-b][1,4,5]oxathiazepin]-2′(3′H)-yl)methyl)-4-methylphenyl)-3-(3-(difluoromethyl)-8-methyl-[1,2,4]triazolo[4,3-a]pyridin-7-yl)propanoic Acid]",453 nM,> 20000 nM
Cc1ccc(C(CC(=O)O)c2ccc3c(nnn3C)c2C(F)F)cc1CN1CC2CCCN2c2ncccc2S1(=O)=O (stereo not shown) [Example 71],2.6 nM,1160 nM
"Cc1ccc([C@H](CC(=O)O)c2ccn3c(C(F)(F)F)nnc3c2C)cc1CN1C[C@H]2CCCCN2c2ncc(C#N)cc2S1(=O)=O (single isomer, unassigned) [Example 9, (*S)-3-(3-(((*R)-3-Cyano-5,5-dioxido-7,7a,8,9,10,11-hexahydro-6H-dipyrido[2,1-d:2′,3′-f][1,2,5]thiadiazepin-6-yl)methyl)-4-methylphenyl)-3-(8-methyl-3-(trifluoromethyl)-[1,2,4]triazolo[4,3-a]pyridin-7-yl)propanoic Acid]",< 1 nM,3.8 nM
"Cc1cnc2c(c1)S(=O)(=O)N(Cc1cc([C@H](c3ccn4c(C5CC5)nnc4c3C)C(C)(C)C(=O)O)ccc1C)CC1(COC1)O2 (single isomer, unassigned) [Example 619, (*R)-3-(3-Cyclopropyl-8-methyl-[1,2,4]triazolo[4,3-a]pyridin-7-yl)-2,2-dimethyl-3-(4-methyl-3-((8′-methyl-1′,1′-dioxidospiro[oxetane-3,4′-pyrido[2,3-b][1,4,5]oxathiazepin]-2′(3′H)-yl)methyl)phenyl)propanoic Acid]",< 1 nM,4.48 nM
"Cc1ccc([C@@H](CC(=O)O)c2ccn3c(C(F)(F)F)nnc3c2C)cc1CN1C[C@H]2CCCCN2c2ncccc2S1(=O)=O (single isomer, unassigned) [Example 273, (*R)-3-(3-(((*R)-5,5-Dioxido-7,7a,8,9,10,11-hexahydro-6H-dipyrido[2,1-d:2′,3′-f][1,2,5]thiadiazepin-6-yl)methyl)-4-methylphenyl)-3-(8-methyl-3-(trifluoromethyl)-[1,2,4]triazolo[4,3-a]pyridin-7-yl)propanoic Acid]",< 1 nM,25.8 nM
"Cc1ccc([C@@H](c2ccn3c(C(F)(F)F)nnc3c2C)C(C)(C)C(=O)O)cc1CN1C[C@@H]2CCCCN2c2ncc(C#N)cc2S1(=O)=O (single isomer, unassigned) [Example 424, (*S)-3-(3-(((*S)-3-cyano-5,5-dioxido-7,7a,8,9,10,11-hexahydro-6H-dipyrido[2,1-d:2′,3′-f][1,2,5]thiadiazepin-6-yl)methyl)-4-methylphenyl)-2,2-dimethyl-3-(8-methyl-3-(trifluoromethyl)-[1,2,4]triazolo[4,3-a]pyridin-7-yl)propanoic Acid]",< 1 nM,1.65 nM

# Further lines, with some results ahead:
Kd [1],Compound,EC50 [2]
< 1 nM,"Cc1ccc([C@@H](CC(=O)O)c2ccn3c(C(F)(F)F)nnc3c2C)nc1CN1C[C@@H]2CCCCN2c2ncc(F)cc2S1(=O)=O (single isomer, unassigned) [Example 497, (*S)-3-(6-(((*S)-3-Fluoro-5,5-dioxido-7,7a,8,9,10,11-hexahydro-6H-dipyrido[2,1-d:2′,3′-f][1,2,5]thiadiazepin-6-yl)methyl)-5-methylpyridin-2-yl)-3-(8-methyl-3-(trifluoromethyl)-[1,2,4]triazolo[4,3-a]pyridin-7-yl)propanoic Acid]",4.47 nM
< 1 nM,"CC[C@@H]1CN(Cc2nc([C@@H](CC(=O)O)c3ccc4c(nnn4C4CC4)c3C)ccc2C)S(=O)(=O)c2cccnc2O1 (single isomer, unassigned) [Example 175, (*S)-3-(1-Cyclopropyl-4-methyl-1H-benzo[d][1,2,3]triazol-5-yl)-3-(6-(((R)-4-ethyl-1,1-dioxido-3,4-dihydro-2H-pyrido[2,3-b][1,4,5]oxathiazepin-2-yl)methyl)-5-methylpyridin-2-yl)propanoic Acid]",5.3 nM
< 1 nM,"CC[C@@H]1CN(Cc2cc([C@H](CC(=O)O)c3ccn4c(C(F)(F)F)nnc4c3C)ccc2C)S(=O)(=O)c2cccnc2O1 (single isomer, unassigned) [Example 189, (*S)-3-(3-(((R)-4-Ethyl-1,1-dioxido-3,4-dihydro-2H-pyrido[2,3-b][1,4,5]oxathiazepin-2-yl)methyl)-4-methylphenyl)-3-(8-methyl-3-(trifluoromethyl)-[1,2,4]triazolo[4,3-a]pyridin-7-yl)propanoic Acid]",11 nM
< 1 nM,"Cc1ccc([C@H](c2ccn3c(C(F)(F)F)nnc3c2C)C(C)(C)C(=O)O)cc1CN1C[C@]2(CCOC2)Oc2ncccc2S1(=O)=O (single isomer, unassigned) [Example 385, (*R)-3-(3-(((*S)-1′,1′-Dioxido-4,5-dihydro-2H-spiro[furan-3,4′-pyrido[2,3-b][1,4,5]oxathiazepin]-2′(3′H)-yl)methyl)-4-methylphenyl)-2,2-dimethyl-3-(8-methyl-3-(trifluoromethyl)-[1,2,4]triazolo[4,3-a]pyridin-7-yl)propanoic Acid]",1.8 nM
< 1 nM,"Cc1cnc2c(c1)S(=O)(=O)N(Cc1nc([C@@H](c3ccn4c(C(F)F)nnc4c3C)C(C)(C)C(=O)O)ccc1C)CC1(COC1)O2 (single isomer, unassigned) [Example 627, (*S)-3-(3-(Difluoromethyl)-8-methyl-[1,2,4]triazolo[4,3-a]pyridin-7-yl)-2,2-dimethyl-3-(5-methyl-6-((8′-methyl-1′,1′-dioxidospiro[oxetane-3,4′-pyrido[2,3-b][1,4,5]oxathiazepin]-2′(3′H)-yl)methyl)pyridin-2-yl)propanoic Acid]",1.35 nM
< 1 nM,"Cc1ccc(C(CC(=O)O)c2ccn3c(C(F)(F)F)nnc3c2)cc1CN1C[C@@H]2CCCN2c2ncccc2S1(=O)=O (stereo partly drawn) [Example 253, 3-(3-(((S)-5,5-Dioxido-7a,8,9,10-tetrahydropyrido[2,3-f]pyrrolo[2,1-d][1,2,5]thiadiazepin-6(7H)-yl)methyl)-4-methylphenyl)-3-(3-(trifluoromethyl)-[1,2,4]triazolo[4,3-a]pyridin-7-yl)propanoic Acid]",1170 nM
< 1 nM,"Cc1cnc2c(c1)S(=O)(=O)N(Cc1nc([C@@H](CC(=O)O)c3ccn4c(C(F)(F)F)nnc4c3C)ccc1C)C[C@H]1CCCCN21 (single isomer, unassigned) [Example 491, (*S)-3-(8-Methyl-3-(trifluoromethyl)-[1,2,4]triazolo[4,3-a]pyridin-7-yl)-3-(5-methyl-6-(((*R)-3-methyl-5,5-dioxido-7,7a,8,9,10,11-hexahydro-6H-dipyrido[2,1-d:2′,3′-f][1,2,5]thiadiazepin-6-yl)methyl)pyridin-2-yl)propanoic Acid]",5.53 nM
